# Where two headings read alike, the source gives them in different places.
# Legend:
# [1] = molecular target: T1, Orai1 (Homo sapiens, UniProt Q13586+Q96D31); test: fura-2 Ca2+ add-back; type: cell-based
# [2] = molecular target: T1, Orai1; test: fura-2 Ca2+ add-back; type: cell-based; remark: listed apart in the source
# T1 sequence (Q96D31 whole entry): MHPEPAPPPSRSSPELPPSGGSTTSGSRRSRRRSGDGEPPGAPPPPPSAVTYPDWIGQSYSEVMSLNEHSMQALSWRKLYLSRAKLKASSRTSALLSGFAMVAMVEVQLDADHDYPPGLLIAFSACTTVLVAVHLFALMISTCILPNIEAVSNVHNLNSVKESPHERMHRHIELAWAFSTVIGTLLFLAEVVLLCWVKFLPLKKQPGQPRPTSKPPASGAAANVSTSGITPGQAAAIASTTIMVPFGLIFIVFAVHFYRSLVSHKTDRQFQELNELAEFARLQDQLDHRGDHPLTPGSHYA
# T1 sequence (Q13586 23-685): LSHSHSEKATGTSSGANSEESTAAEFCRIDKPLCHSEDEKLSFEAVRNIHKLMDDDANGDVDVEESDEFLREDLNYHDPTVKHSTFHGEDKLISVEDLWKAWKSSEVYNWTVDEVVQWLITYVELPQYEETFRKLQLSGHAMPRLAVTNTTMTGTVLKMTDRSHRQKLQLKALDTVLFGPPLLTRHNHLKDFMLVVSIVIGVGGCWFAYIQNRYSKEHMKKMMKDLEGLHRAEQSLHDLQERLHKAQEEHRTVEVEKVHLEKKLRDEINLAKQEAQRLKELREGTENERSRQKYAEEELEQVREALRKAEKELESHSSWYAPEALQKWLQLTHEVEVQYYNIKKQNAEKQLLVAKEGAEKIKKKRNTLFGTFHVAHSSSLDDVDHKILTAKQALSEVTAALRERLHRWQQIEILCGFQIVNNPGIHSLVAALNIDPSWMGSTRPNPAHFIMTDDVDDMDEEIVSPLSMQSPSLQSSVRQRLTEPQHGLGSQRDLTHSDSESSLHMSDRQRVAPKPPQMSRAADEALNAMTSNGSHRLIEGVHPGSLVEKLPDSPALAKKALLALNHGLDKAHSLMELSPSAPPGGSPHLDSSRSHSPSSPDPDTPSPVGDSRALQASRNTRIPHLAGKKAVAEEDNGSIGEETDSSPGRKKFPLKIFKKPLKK
IC50 [1] [nM],IC50 [2] [nM],Substance
~200,–,DPB162-AE
–,~600,DPB163-AE
